Assay results as given in PubChem BioAssay (NCI).
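Dose response: 5 concentrations. Exposure: 48 h. Format: 96-well plates. Endpoint: linear interpolation; highest concentration if not reached. TGI denotes the concentration required for complete inhibition of growth.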

Tests used:
Test in all cases: growth of human tumour cells (NCI), 48 h
RPMI-8226 leukemia = test system: RPMI-8226 leukemia
U251 CNS = test system: U251 CNS
RXF 393 renal = test system: RXF 393 renal
SF-295 CNS = test system: SF-295 CNS
HOP-18 NSCLC = test system: HOP-18 NSCLC
HOP-92 NSCLC = test system: HOP-92 NSCLC
OVCAR-3 ovarian = test system: OVCAR-3 ovarian
SK-OV-3 ovarian = test system: SK-OV-3 ovarian
SK-MEL-5 melanoma = test system: SK-MEL-5 melanoma
DLD-1 colon = test system: DLD-1 colon
SK-MEL-28 melanoma = test system: SK-MEL-28 melanoma
K-562 leukemia = test system: K-562 leukemia
ACHN renal = test system: ACHN renal
CCRF-CEM leukemia = test system: CCRF-CEM leukemia
TK-10 renal = test system: TK-10 renal
HCT-116 colon = test system: HCT-116 colon
786-0 renal = test system: 786-0 renal
M19-MEL melanoma = test system: M19-MEL melanoma
LOX IMVI melanoma = test system: LOX IMVI melanoma
SNB-78 CNS = test system: SNB-78 CNS
MALME-3M melanoma = test system: MALME-3M melanoma
KM20L2 colon = test system: KM20L2 colon
COLO 205 colon = test system: COLO 205 colon
OVCAR-8 ovarian = test system: OVCAR-8 ovarian
UACC-62 melanoma = test system: UACC-62 melanoma
LXFL 529 NSCLC = test system: LXFL 529 NSCLC
MOLT-4 leukemia = test system: MOLT-4 leukemia
NCI-H460 lung = test system: NCI-H460 lung
HCC-2998 colon = test system: HCC-2998 colon
SNB-19 CNS = test system: SNB-19 CNS
DMS 273 small cell lung = test system: DMS 273 small cell lung
NCI-H23 lung = test system: NCI-H23 lung
NCI-H522 lung = test system: NCI-H522 lung
SK-MEL-2 melanoma = test system: SK-MEL-2 melanoma
DMS 114 small cell lung = test system: DMS 114 small cell lung
HL-60(TB) leukemia = test system: HL-60(TB) leukemia
SN12C renal = test system: SN12C renal
SR leukemia = test system: SR leukemia
UACC-257 melanoma = test system: UACC-257 melanoma
SF-268 CNS = test system: SF-268 CNS
A498 renal = test system: A498 renal
UO-31 renal = test system: UO-31 renal
KM12 colon = test system: KM12 colon
A549 NSCLC = test system: A549 NSCLC
M14 melanoma = test system: M14 melanoma
OVCAR-5 ovarian = test system: OVCAR-5 ovarian
SW-620 colon = test system: SW-620 colon
SF-539 CNS = test system: SF-539 CNS
HCT-15 colon = test system: HCT-15 colon
HOP-62 NSCLC = test system: HOP-62 NSCLC
EKVX NSCLC = test system: EKVX NSCLC

Measured: TGI

O=C1C2=C(CCCC2)Nc2cccc3ncn1c23
> 100 µM: RPMI-8226 leukemia | U251 CNS | RXF 393 renal | SF-295 CNS | HOP-18 NSCLC | HOP-92 NSCLC | OVCAR-3 ovarian | SK-OV-3 ovarian | SK-MEL-5 melanoma | DLD-1 colon | SK-MEL-28 melanoma | K-562 leukemia | ACHN renal | CCRF-CEM leukemia | TK-10 renal | HCT-116 colon | 786-0 renal | M19-MEL melanoma | LOX IMVI melanoma | SNB-78 CNS | MALME-3M melanoma | KM20L2 colon | COLO 205 colon | OVCAR-8 ovarian | UACC-62 melanoma | LXFL 529 NSCLC | MOLT-4 leukemia | NCI-H460 lung | HCC-2998 colon | SNB-19 CNS | DMS 273 small cell lung | NCI-H23 lung | NCI-H522 lung | SK-MEL-2 melanoma | DMS 114 small cell lung | HL-60(TB) leukemia | SN12C renal | SR leukemia | UACC-257 melanoma | SF-268 CNS | A498 renal | UO-31 renal | KM12 colon | A549 NSCLC | M14 melanoma | OVCAR-5 ovarian | SW-620 colon | SF-539 CNS | HCT-15 colon | HOP-62 NSCLC | EKVX NSCLC
